Measured values as given in patent US11236124B2, “Method and composition for hydrolyzing eggshell membrane” (EGGNOVO S.L., priority 2017, dated 2022).
Each block holds one molecule with its values, some of them ahead of it.

Experiments:
Type in all cases: biochemical
eggshell membrane [1] = assay: Testing of denaturing agents for eggshell membrane dissolution; conditions: denaturing agent used for eggshell membrane hydrolysis
eggshell membrane [2] = assay: Eggshell membrane solubilization with different enzymes and reducing agents (Example 1); conditions: 10 mg eggshell membrane/ml
Method: A solution for solubilizing eggshell membrane was prepared at a ratio of 10 mg of eggshell membrane/ml of solution. Said solution comprised a denaturing agent, and more specifically a denaturing agent having detergent properties and an amphiphilic nature such as SDS, at a concentration of 0.5-5%. The solution also comprised a reducing agent, for which solutions of the following reducing agents were prepared at a concentration of 100 mM-1 M: sodium sulfite (Na2SO3), sodium hydrosulfite (Na2S2O4), sodium hydroxymethanesulfinate (HOCH2SO2Na), sodium metabisulfite (Na2S2O5), and dithiothreitol (DTT); these solutions were tested successively. Finally, a suitable buffer was added for maintaining the pH depending on the enzyme that was going to be used, having a concentration of 25-50 mM. Once the pH was adjusted with a pH-meter to the optimum pH for each enzyme, the enzyme previously prepared according to the manufacturer's specification at a concentration of 1% was added to the solution, such that the final concentration of the enzyme with respect to the total solution was 0.05-0.5%. The same was performed with each of the enzymes used in the present example.
Once all the components were mixed and homogenized, said mixture was incubated at the maximum temperature of activity of each enzyme. The level of hydrolysis was assessed after 1, 12, and 24 hours of incubation and the results were compared against a control that is performed and only differs from the test solutions by the absence of enzyme.

eggshell membrane [3] = assay: Eggshell membrane solubilization with papain at different Na2S2O5 concentrations, with or without SDS (Example 2); conditions: 38° C., 12 h, 10 mg membrane/ml
Method: Specifically, a solution for solubilizing 10 mg of eggshell membrane/ml of solution was prepared. Said solution only contained 100 mM sodium metabisulfite (Na2S2O5) (1). Three other similar solutions were prepared with an increasing order of concentration of Na2S2O5, i.e., 5 mM (2), 50 mM (3), and 100 mM (4), but in this case they contained 0.5-5% SDS in 50 mM HEPES buffer adjusted to pH 6.2 with a pH-meter. It was verified that the optimum range of sodium metabisulfite (Na2S2O5) for the present invention is between 50 and 150 mM. Papain previously activated in a 0.15 M sodium chloride solution was added such that the final concentration of the enzyme in the mixture was 0.05-0.5%. Once all the components were mixed and homogenized, said mixture was incubated at 38° C. for 12 h. The level of hydrolysis was evaluated after 12 hours of incubation and the results were compared against a control that is performed and only differs from the test solutions by the absence of enzyme.

eggshell membrane [4] = assay: Hydrolyzation of different amounts of eggshell membrane with 0.1% papain (Example 3); conditions: papain 0.1%, 12 h, 100 mM Na2S2O5, SDS, pH 6.2, 38° C.
Method: Specifically, different solutions with different amounts of eggshell membrane were prepared such that final concentrations with respect to the total solution volume of 20, 30, 40, 50, 70, 100, and 150 mg of eggshell membrane/ml of solution were obtained. The solution contained 100 mM sodium metabisulfite (Na2S2O5), 0.5-5% SDS in 50 mM HEPES buffer adjusted to pH 6.2 with a pH-meter. 1% papain previously activated in a 0.15 M sodium chloride solution was then added such that the concentration of the enzyme with respect to the final volume of the mixture was 0.05-0.5%. Once all the components were mixed and homogenized, said mixture was incubated at 38° C. for 12 h and the results were compared against a control that is performed and only differs from the test solutions by the absence of enzyme. A clear, amber-colored solution was obtained, the color of which intensifies as the membrane concentration increases, in addition to the presence of a precipitate increasing, which indicates a lower level of hydrolysis.

[5] = SDS + Na2S2O4, 24 h, pH optimum of each enzyme
[6] = SDS + Na2SO3, 24 h, pH optimum of each enzyme
[7] = SDS + DTT, 24 h, pH optimum of each enzyme
[8] = SDS + HOCH2SO2Na, 24 h, pH optimum of each enzyme
[9] = SDS + Na2S2O5, 24 h, pH optimum of each enzyme

Molecule: CCCCCCCCCCCCOS(=O)(=O)[O-].[Na+] [SDS, sodium lauryl sulfate]
dissolution results with the denaturing agent (eggshell membrane [1]): excellent results

Molecule: NC(N)=O [urea]
dissolution results with the denaturing agent (eggshell membrane [1]): without obtaining satisfactory dissolution results

Molecule: Bromelain
% solubilized (eggshell membrane [2]; SDS + DTT, 1 h, pH 6.2): 100%
% solubilized (eggshell membrane [2]; SDS + HOCH2SO2Na, 12 h, pH 6.2): 100%
% solubilized (eggshell membrane [2]; [5]): 0%
% solubilized (eggshell membrane [2]; SDS + Na2S2O5, 1 h, pH 6.2): 100%
% solubilized (eggshell membrane [2]; [6]): 0%

Molecule: Pepsin
% solubilized (eggshell membrane [2]; [7]): 0%
% solubilized (eggshell membrane [2]; [8]): 0%
% solubilized (eggshell membrane [2]; [5]): 0%
% solubilized (eggshell membrane [2]; [9]): 0%
% solubilized (eggshell membrane [2]; [6]): 0%

The next lines start with results.

% solubilized (eggshell membrane [2]; [7]): 50%
% solubilized (eggshell membrane [2]; [8]): 0%
% solubilized (eggshell membrane [2]; [5]): 0%
% solubilized (eggshell membrane [2]; [9]): 50%
% solubilized (eggshell membrane [2]; [6]): 0%
Molecule: Ficin

% solubilized (eggshell membrane [2]; SDS + DTT, 1 h, pH 6.2): 100%
% solubilized (eggshell membrane [2]; SDS + HOCH2SO2Na, 12 h, pH 6.2): 100%
% solubilized (eggshell membrane [2]; [5]): 0%
% solubilized (eggshell membrane [2]; SDS + Na2S2O5, 1 h, pH 6.2): 100%
% solubilized (eggshell membrane [2]; [6]): 0%
B1: Papain: protease of plant origin with endopeptidase activity from the group of cysteine proteases (protein, UniProt P00784 134-345, looked up)
Papain: IPEYVDWRQKGAVTPVKNQGSCGSCWAFSAVVTIEGIIKIRTGNLNEYSEQELLDCDRRSYGCNGGYPWSALQLVAQYGIHYRNTYPYEGVQRYCRSREKGPYAAKTDGVRQVQPYNEGALLYSIANQPVSVVLEAAGKDFQLYRGGIFVGPCGNKVDHAVAAVGYGPNYILIKNSWGTGWGENGYIRIKRGTGNSYGVCGLYTSSFYPVKN
% solubilized (eggshell membrane [3]; (1) Na2S2O5 100 mM, no SDS): 0%
% solubilized (eggshell membrane [3]; (2) SDS + Na2S2O5 5 mM, pH 6.2): 0%
% solubilized (eggshell membrane [3]; (3) SDS + Na2S2O5 50 mM, pH 6.2): 70%
% solubilized (eggshell membrane [3]; (4) SDS + Na2S2O5 100 mM, pH 6.2): 100%
% of hydrolyzation (eggshell membrane [4]; membrane 20 mg/ml): 100%
% of hydrolyzation (eggshell membrane [4]; membrane 30 mg/ml): 100%
% of hydrolyzation (eggshell membrane [4]; membrane 50 mg/ml): 100%
% of hydrolyzation (eggshell membrane [4]; membrane 70 mg/ml): 100%
% of hydrolyzation (eggshell membrane [4]; membrane 100 mg/ml): 90%
% of hydrolyzation (eggshell membrane [4]; membrane 150 mg/ml): 80%
